# Results from PMC6748449, “HupA, the main undecaprenyl pyrophosphate and phosphatidylglycerol phosphate phosphatase in Helicobacter pylori is essential for colonization of the stomach” (PLoS Pathogens, 2019).
# How the values were obtained:
# [1] = target: T1, LpxF (HP1580) (Helicobacter pylori, UniProt O26100); assay: phosphate release, malachite green; assay type: biochemical; details: 50 uM substrate, 0.2% DDM, pH 7.4, 37 °C; very low activity
# T1 construct: gene HP_1580
# [2] = target: LpxE (HP0021) (Helicobacter pylori, UniProt O24866); assay: phosphate release, malachite green; assay type: biochemical; details: 50 uM substrate, 0.2% DDM, pH 7.4, 37 °C
# Sequence of LpxE (HP0021) (O24866 whole entry): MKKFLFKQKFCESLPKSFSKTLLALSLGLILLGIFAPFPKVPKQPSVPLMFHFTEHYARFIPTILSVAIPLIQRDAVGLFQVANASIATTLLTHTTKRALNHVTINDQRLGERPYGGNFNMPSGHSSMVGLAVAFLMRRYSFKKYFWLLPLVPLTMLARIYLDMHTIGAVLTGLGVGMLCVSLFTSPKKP
# T1 sequence (O26100 entry or part of it): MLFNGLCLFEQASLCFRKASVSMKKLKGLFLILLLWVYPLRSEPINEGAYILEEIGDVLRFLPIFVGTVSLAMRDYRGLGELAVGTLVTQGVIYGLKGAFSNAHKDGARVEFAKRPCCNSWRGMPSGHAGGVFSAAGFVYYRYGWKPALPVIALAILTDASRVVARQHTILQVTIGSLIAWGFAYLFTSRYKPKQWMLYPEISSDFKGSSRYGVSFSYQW
smiles,measurement,setting,value
CC(C)=CCC/C(C)=C/CC/C(C)=C/COP(=O)(O)OP(=O)(O)O [C15-PP],"phosphate release, malachite green",[1],LpxF only showed very low activity towards C15-PP and PGP
same,"phosphate release, malachite green",[2],"LpxE had similar substrate specificity as HupA, except for C5-PP"
